Experimental data taken from patent US10947252B2, “Inhibitors of KEAP1-Nrf2 protein-protein interaction” (Janssen Pharmaceutica NV, priority 2018, dated 2021).

What was measured:
[1] = system: Glo-Response ARE-luc2P HEK293 cell line; test: ARE luciferase reporter cell-based assay; details: average of results obtained;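 further: luciferase signal tracks Nrf2 activation of the ARE once compounds disrupt KEAP1-Nrf2 binding, read with One-Glo reagent, DMSO serving as low control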
[2] = target: Kelch domain of human KEAP1 (321-624 aa) (Homo sapiens (Human), UniProt Q14145); test: KEAP1 KELCH ThermoFluor binding assay; details: KEAP Kelch […], 1,8-ANS, pH 7.0, average of results obtained, read-out: Tf Kd;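 further: Ligand-induced melting temperature shift of E. coli-expressed KEAP1 Kelch protein, Kd estimated from concentration-response curves of ΔTm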
Sequence of Kelch domain of human KEAP1 (321-624 aa) (Q14145 321-624): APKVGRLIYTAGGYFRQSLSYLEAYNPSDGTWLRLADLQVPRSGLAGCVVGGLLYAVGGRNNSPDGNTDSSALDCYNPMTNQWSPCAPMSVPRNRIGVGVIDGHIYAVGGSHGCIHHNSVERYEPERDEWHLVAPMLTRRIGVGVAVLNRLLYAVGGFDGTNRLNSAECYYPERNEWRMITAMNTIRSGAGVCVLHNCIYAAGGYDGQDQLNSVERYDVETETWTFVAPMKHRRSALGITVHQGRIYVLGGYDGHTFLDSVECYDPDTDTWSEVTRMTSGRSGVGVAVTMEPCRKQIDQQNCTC

Row | Compound | Kd [2] | EC50 ([1]; Homo sapiens, HEK293, 24 h) | EC50 ([1]; 24 hours)
1 | CCn1nnc2c(C)c(C(CC(=O)O)c3ccc(C)c(CN4CC5(CC5)Oc5ncccc5S4(=O)=O)n3)ccc21 (racemic) [Example 243, (R/S)-3-(6-((1′,1′-Dioxidospiro[cyclopropane-1,4′-pyrido[2,3-b][1,4,5]oxathiazepin]-2′(3′H)-yl)methyl)-5-methylpyridin-2-yl)-3-(1-ethyl-4-methyl-1H-benzo[d][1,2,3]triazol-5-yl)propanoic Acid] | < 1 nM | 35 nM | –
2 | Cc1ccc(C(CC(=O)O)c2ccc3c(nnn3C3CC3)c2C)cc1CN1C[C@@H]2CCCCN2c2ncccc2S1(=O)=O (mixture of isomers) [Example 397, (R/S)-3-(1-Cyclopropyl-4-methyl-1H-benzo[d][1,2,3]triazol-5-yl)-3-(3-(((*S)-5,5-dioxido-7,7a,8,9,10,11-hexahydro-6H-dipyrido[2,1-d:2′,3′-f][1,2,5]thiadiazepin-6-yl)methyl)-4-methylphenyl)propanoic Acid] | < 1 nM | 11 nM | –
3 | CCn1nnc2c(C)c(C(CC(=O)O)c3ccc(C)c(CN4CC5(CCOCC5)Oc5ccc(F)cc5S4(=O)=O)n3)ccc21 (racemic) [Example 417, 3-(1-Ethyl-4-methyl-1H-benzo[d][1,2,3]triazol-5-yl)-3-(6-((8-fluoro-1,1-dioxido-2′,3′,5′,6′-tetrahydrospiro[benzo[b][1,4,5]oxathiazepine-4,4′-pyran]-2(3H)-yl)methyl)-5-methylpyridin-2-yl)propanoic acid] | < 1 nM | 1.77 nM | –
4 | Cc1ccc(C(CC(=O)O)c2ccn3c(C(F)(F)F)nnc3c2C)nc1CN1CC2(CC2)Oc2ncccc2S1(=O)=O (racemic) [Example 481, (R/S)-3-(6-((1′,1′-Dioxidospiro[cyclopropane-1,4′-pyrido[2,3-b][1,4,5]oxathiazepin]-2′(3′H)-yl)methyl)-5-methylpyridin-2-yl)-3-(8-methyl-3-(trifluoromethyl)-[1,2,4]triazolo[4,3-a]pyridin-7-yl)propanoic Acid] | < 1 nM | 1290 nM | –
5 | Cc1cnc2c(c1)S(=O)(=O)N(Cc1cc(C(c3ccn4c(C(F)(F)F)nnc4c3C)C(C)(C)C(=O)O)cnc1C)CC1(CCOCC1)O2 (racemic) [Example 584, (R/S)-2,2-Dimethyl-3-(8-methyl-3-(trifluoromethyl)-[1,2,4]triazolo[4,3-a]pyridin-7-yl)-3-(6-methyl-5-((8′-methyl-1′,1′-dioxido-2,3,5,6-tetrahydrospiro[pyran-4,4′-pyrido[2,3-b][1,4,5]oxathiazepin]-2′(3′H)-yl)methyl)pyridin-3-yl)propanoic Acid] | < 1 nM | 478 nM | –
6 | Cc1ccc([C@@H](CC(=O)O)c2ccc3c(nnn3CC3CC3)c2C)cc1CN1C[C@]2(C)CCCN2c2ncccc2S1(=O)=O (relative stereo) [Example 11, 3-(1-(Cyclopropylmethyl)-4-methyl-1H-benzo[d][1,2,3]triazol-5-yl)-3-(4-methyl-3-(((*S)-7a-methyl-5,5-dioxido-7a,8,9,10-tetrahydropyrido[2,3-f]pyrrolo[2,1-d][1,2,5]thiadiazepin-6(7H)-yl)methyl)phenyl)propanoic Acid] | 0.024 nM | 4.2 nM | –
7 | Cc1ccc([C@H](c2cc(C)n3c(C(F)(F)F)nnc3c2C)C(C)C(=O)O)cc1CN1C[C@@H]2CCCCN2c2ncccc2S1(=O)=O (relative stereo) [Example 133, (3*R)-3-(5,8-Dimethyl-3)-(trifluoromethyl)-[1,2,4-triazolo[4,3-a]pyridine-7-yl)-3-(3-(((*S)-5,5-dioxido-7,7a,8,9,10,11-hexahydro-6H-dipyrido[2,1-d:2′,3′-f][1,2,5]thiadiazepin-6-yl)methyl)-4-methylphenyl)-2-methylpropanoic Acid] | < 1 nM | 2 nM | –
8 | Cc1ccc([C@@H](c2cc(C)n3c(C(F)(F)F)nnc3c2C)C(C)C(=O)O)cc1CN1C[C@@H]2CCCCN2c2ncccc2S1(=O)=O (relative stereo) [Example 134, (3*S)-3-(5,8-Dimethyl-3)-(trifluoromethyl)-[1,2,4-triazolo[4,3-a]pyridine-7-yl)-3-(3-(((*S)-5,5-dioxido-7,7a,8,9,10,11-hexahydro-6H-dipyrido[2,1-d:2′,3′-][1,2,5]thiadiazepin-6-yl)methyl)-4-methylphenyl)-2-methylpropanoic Acid] | < 1 nM | 61.3 nM | –
9 | Cc1ccc([C@H](CC(=O)O)c2cc(OC(F)F)c3c(c2)nnn3C)cc1CN1C[C@H]2CCCN2c2ncccc2S1(=O)=O (relative stereo) [Example 247, (*S)-3-(7-(Difluoromethoxy)-1-methyl-1H-benzo[d][1,2,3]triazol-5-yl)-3-(3-(((R)-5,5-dioxido-7a,8,9,10-tetrahydropyrido[2,3-f]pyrrolo[2,1-d][1,2,5]thiadiazepin-6(7H)-yl)methyl)-4-methylphenyl)propanoic Acid] | < 1 nM | – | 225 nM

More lines, main results first:

Row | Kd [2] | Compound | EC50 ([1]; Homo sapiens, HEK293, 24 h) | EC50 ([1]; 24 hours)
10 | < 1 nM | Cc1cnc2c(c1)S(=O)(=O)N(Cc1cc(C(c3ccn4c(C5CC5)nnc4c3C)C(C)(C)C(=O)O)ccc1C)CC1(CC1)O2 (racemic) [Example 391, (R/S)-3-(3-Cyclopropyl-8-methyl-[1,2,4]triazolo[4,3-a]pyridin-7-yl)-2,2-dimethyl-3-(4-methyl-3-((8′-methyl-1′,1′-dioxidospiro[cyclopropane-1,4′-pyrido[2,3-b][1,4,5]oxathiazepin]-2′(3′H)-yl)methyl)phenyl)propanoic Acid] | 26.7 nM | –
11 | < 1 nM | Cc1cnc2c(c1)S(=O)(=O)N(Cc1cc(C(c3ccc4c(nnn4C4CC4)c3C)C(C)(C)C(=O)O)cnc1C)CC1(CC1)O2 (racemic) [Example 394, (R/S)-3-(1-Cyclopropyl-4-methyl-1H-benzo[d][1,2,3]triazol-5-yl)-2,2-dimethyl-3-(6-methyl-5-((8′-methyl-1′,1′-dioxidospiro[cyclopropane-1,4′-pyrido[2,3-b][1,4,5]oxathiazepin]-2′(3′H)-yl)methyl)pyridin-3-yl)propanoic Acid] | 40.1 nM | –
12 | < 1 nM | Cc1cnc2c(c1)S(=O)(=O)N(Cc1cc(C(c3ccn4c(C(F)F)nnc4c3C)C(C)(C)C(=O)O)ccc1C)CC1(CCOCC1)O2 (racemic) [Example 575, (R/S)-3-(3-(Difluoromethyl)-8-methyl-[1,2,4]triazolo[4,3-a]pyridin-7-yl)-2,2-dimethyl-3-(4-methyl-3-((8′-methyl-1′,1′-dioxido-2,3,5,6-tetrahydrospiro[pyran-4,4′-pyrido[2,3-b][1,4,5]oxathiazepin]-2′(3′H)-yl)methyl)phenyl)propanoic Acid] | 6.62 nM | –
13 | < 1 nM | Cc1cnc2c(c1)S(=O)(=O)N(Cc1cc(C(c3ccn4c(C(F)(F)F)nnc4c3C)C(C)(C)C(=O)O)ncc1C)CC1(CC1)O2 (racemic) [Example 587, (R/S)-2,2-Dimethyl-3-(8-methyl-3-(trifluoromethyl)-[1,2,4]triazolo[4,3-a]pyridin-7-yl)-3-(5-methyl-4-((8′-methyl-1′,1′-dioxidospiro[cyclopropane-1,4′-pyrido[2,3-b][1,4,5]oxathiazepin]-2′(3′H)-yl)methyl)pyridin-2-yl)propanoic Acid] | 17.4 nM | –
